Results: US4631289A, “Useful in radiotherapy of chemotherapy 4-aziridino-1-nitroimidazol-1-yl-2,3-butanediols” (National Research Development Corporation, priority 1982, dated 1986)
Read-outs that look alike come from different tables or passages of the source.

Experiments:
MT tumour [1] = test: Chemosensitization (melphalan): enhancement of melphalan treatment in WHT mice bearing MT tumour (Example 3); format: in vivo; conditions: i.p. before melphalan
Procedure: (§1) In the following Examples, WHT mice in which the MT tumour has been implanted subcutaneously are administered the compound of Example 1 intraperitoneally before treatment with radiation or with the chemotherapeutic agent melphalan. The time before such treatment at which the drug is administered is such that maximum enhancement is effected. The results of treatment with radiation and the chemotherapeutic drug are set out respectively in Tables I and II together with comparison results using misonidazole (MISO) and the compound Ro-03-8799. The asterisks against the results from treatment with the latter compounds indicate that the tumours treated in these cases are intramuscular.

MT tumour [2] = test: Radiosensitization: enhancement of radiation treatment in WHT mice bearing MT tumour (Example 2); format: in vivo; conditions: administered dose 3.8 mmoles/kg, intraperitoneal, before radiation; tumour implanted subcutaneously
Procedure: as §1

[3] = tested on: irradiated hypoxic V79 mammalian cells; test: Sensitisation: concentration for enhancement ratio of 1.6 in irradiated hypoxic V79 cells; format: cell-based; conditions: Cricetulus griseus, read-out: C1.6 (concentration required to achieve an enhancement ratio of 1.6)
Text: ^a Concentration required to achieve an enhancement ratio of 1.6 in
irradiated hypoxic V79 mammalian cells.

[4] = Toxicity, LD50, i.p. in female WHT mice; conditions: mouse, in vivo, ip
Text: (§2) ^b Drugs administered i.p. to .female. WHT mice.

[5] = Toxicity, LD50, i.p. in male CRCD1 mice; conditions: mouse, in vivo, ip, male CRCD1 mice (footnote c)
Text: as §2
^c For Compound of Example 1 in .male. CRCD1 mice

[6] = administered dose 0.72 mmoles/kg, * tumours intramuscular

**Q.** With COCC(O)Cn1ccnc1[N+](=O)[O-] (stereo not shown) [MISO, misonidazole] as the molecule, how does the “Enhancement ratio (Chemosensitization, melphalan)” value (MT tumour [1]; [6]) read?
**A.** 1.7

**Q.** And the “Enhancement ratio (Radiosensitization)” value (MT tumour [2])?
**A.** 1.3

**Q.** Which EC (enhancement ratio 1.6) ([3]; V79, light or radiation study) does the source give for O=[N+]([O-])c1nccn1CC(O)CN1CC1c1ccccc1 (stereo not shown) [Example 8, 1-(2-Nitro-1-imidazolyl)-3-(2-phenyl-1-aziridino)-2-propanol] here?
**A.** 300 µM

**Q.** What does the source list for Cc1ncc([N+](=O)[O-])n1CC(O)CN1CC1 (stereo not shown) [Example 11, 1-(2-methyl-5-nitro-1-imidazolyl)-3-(1-aziridino or substitutedaziridino)-2-propanol]?
**A.** EC (enhancement ratio 1.6) ([3]; V79, light or radiation study): 300 µM; LD50 [4]: 800 µmol/kg

**Q.** Which results are given for CCC1CN1CC(O)Cn1ccnc1[N+](=O)[O-] (stereo not shown) [Example 5, 1-(2-Nitro-1-imidazolyl)-3-(2-ethyl-1-aziridino)-2-propanol]?
**A.** EC (enhancement ratio 1.6) ([3]; V79, light or radiation study): 130 µM; LD50 [4]: 580 µmol/kg

**Q.** What does the source list for CC1(C)CN1CC(O)Cn1ccnc1[N+](=O)[O-] (stereo not shown) [Example 7, 1-(2-Nitro-1-imidazolyl)-3-(2,2-dimethyl-1-aziridino)-2-propanol]?
**A.** EC (enhancement ratio 1.6) ([3]; V79, light or radiation study): 80 µM; LD50 [4]: 1250 µmol/kg

**Q.** For CC(C)C1CN1CC(O)Cn1ccnc1[N+](=O)[O-] (stereo not shown) [Example 9, 1-(2-Nitro-1-imidazolyl)-3-(2-isopropyl-1-aziridino)-2-propanol], which EC (enhancement ratio 1.6) ([3]; V79, light or radiation study) is on record?
**A.** 130 µM

**Q.** And the LD50 [4]?
**A.** ≤ 1180 µmol/kg

**Q.** For CC1CN1CC(O)Cn1ccnc1[N+](=O)[O-] (stereo not shown) [Example 4, 1-(2-Nitro-1-imidazolyl)-3-(2-methyl-1-aziridino)-2-propanol], which EC (enhancement ratio 1.6) ([3]; V79, light or radiation study) is on record?
**A.** 80 µM

**Q.** And the LD50 [4]?
**A.** < 580 µmol/kg

**Q.** With C[C@@H]1[C@@H](C)N1CC(O)Cn1ccnc1[N+](=O)[O-] (relative stereo) [Example 14, 1-(2-Nitro-1-imidazolyl)-3-(2,3-dimethyl-1-aziridino)-2-propanol] as the molecule, how does the EC (enhancement ratio 1.6) ([3]; V79, light or radiation study) read?
**A.** 80 µM

**Q.** What does the source list for C[C@@H]1[C@H](C)N1CC(O)Cn1ccnc1[N+](=O)[O-] (relative stereo) [Example 13, 1-(2-Nitro-1-imidazolyl)-3-(2,3-dimethyl-1-aziridino)-2-propanol]?
**A.** EC (enhancement ratio 1.6) ([3]; V79, light or radiation study): 80 µM; LD50 [4]: ≤ 1250 µmol/kg

**Q.** For O=[N+]([O-])c1nccn1CC(O)CN1CCCCC1 (stereo not shown) [Example 8799], which “Enhancement ratio (Chemosensitization, melphalan)” value (MT tumour [1]; [6]) is on record?
**A.** 2.2

**Q.** What about the “Enhancement ratio (Chemosensitization, melphalan)” value (MT tumour [1]; administered dose 0.72 mmoles/kg, tumour implanted subcutaneously) of the same molecule?
**A.** 1.9

**Q.** And the “Enhancement ratio (Radiosensitization)” value (MT tumour [2])?
**A.** 1.3

**Q.** What does the source list for O=[N+]([O-])c1nccn1CC(O)CN1CC1 (stereo not shown) [Example 1, 1-(2-Nitro-1-imidazolyl)-3-(1-aziridino)-2-propanol]?
**A.** Enhancement ratio (Chemosensitization, melphalan) (MT tumour [1]; administered dose 0.08 mmoles/kg, tumour implanted subcutaneously): 3.0; EC (enhancement ratio 1.6) ([3]; light or radiation study, irradiated hypoxic V79 mammalian cells): 100 µM; LD50 [5]: 610 µmol/kg; Enhancement ratio (Radiosensitization) (MT tumour [2]): 1.7

**Q.** Which results are given for O=[N+]([O-])c1nccn1CC(O)C(O)CN1CC1 (stereo not shown) [Example 10, 1-(2-Nitro-1-imidazolyl)-4-(1-aziridino) or substituted aziridino)-2,3-butane-diol]?
**A.** EC (enhancement ratio 1.6) ([3]; V79, light or radiation study): 130 µM; LD50 [4]: 410 µmol/kg
